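The compound was tested at five concentrations on cells cultured in 96-well plates, with a 48-hour exposure period. Here, GI50 denotes the concentration required for 50% inhibition of growth. TGI: concentration producing complete growth inhibition.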
Experiments:
Experiment in all cases: inhibition of tumour cell growth, NCI panel, 48 h
HT29 colon = system: HT29 colon
RPMI-8226 leukemia = system: RPMI-8226 leukemia
OVCAR-8 ovarian = system: OVCAR-8 ovarian
DU-145 prostate = system: DU-145 prostate
A549 NSCLC = system: A549 NSCLC
NCI-H226 lung = system: NCI-H226 lung
OVCAR-4 ovarian = system: OVCAR-4 ovarian
OVCAR-3 ovarian = system: OVCAR-3 ovarian
EKVX NSCLC = system: EKVX NSCLC
M14 melanoma = system: M14 melanoma

| SMILES | TGI (HT29 colon) [nM] | TGI (RPMI-8226 leukemia) [nM] | TGI (OVCAR-8 ovarian) [nM] | TGI (DU-145 prostate) [nM] | TGI (A549 NSCLC) [nM] | TGI (NCI-H226 lung) [nM] | TGI (OVCAR-4 ovarian) [nM] | TGI (OVCAR-3 ovarian) [nM] | TGI (EKVX NSCLC) [nM] | TGI (M14 melanoma) [nM] | GI50 (HT29 colon) [nM] | GI50 (RPMI-8226 leukemia) [nM] | GI50 (OVCAR-8 ovarian) [nM] | GI50 (DU-145 prostate) [nM] | GI50 (A549 NSCLC) [nM] | GI50 (NCI-H226 lung) [nM] | GI50 (OVCAR-4 ovarian) [nM] | GI50 (OVCAR-3 ovarian) [nM] | GI50 (EKVX NSCLC) [nM] | GI50 (M14 melanoma) [nM] |
| --- | --- | --- | --- | --- | --- | --- | --- | --- | --- | --- | --- | --- | --- | --- | --- | --- | --- | --- | --- | --- |
| C[C@]12CC[C@@H]3c4ccc(OCC(=O)O)cc4CC[C@H]3[C@@H]1CCC2=O | > 100000 | > 100000 | > 100000 | > 100000 | > 100000 | > 100000 | > 100000 | > 100000 | > 100000 | > 100000 | – | – | – | – | – | – | – | – | – | – |
| COc1cc2c(cc1OCCCCCN1CCN(c3cc(=O)oc4c(C)c(OC)ccc34)CC1)N=C[C@@H]1CCCN1C2=O | 42.8 | < 11.8 | 5150 | 5360 | 15400 | 36.8 | 189 | 32.4 | 4070 | 22.5 | < 10 | < 10 | 18 | < 10 | 21.1 | < 10 | < 17.8 | < 10 | 174 | 10.1 |
